# Data from the supplement of paper PMC11061612.
# Columns and labels:
# Assay in all cases: combination Emax (second highest fraction inhibited in the dose matrix, 72 h); higher = more inhibition; extreme values may be limits of the assay
# [1] = tested on: KARPAS-1106P (B-Cell Non-Hodgkin's Lymphoma)
# How it was run: (§1)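 Bliss excess equals the observed combination effect minus the expected value EA + EB − EA·EB, where EA and EB are the effects of each agent alone. Combination Emax is the second-highest inhibition within the matrix. Inhibition was scaled from CellTiter-Glo 2.0 luminescence, with 0 set by vehicle wells and 1 by blank wells, after 72 hours of two-drug dosing of cells plated in 1536-well plates.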
# [2] = tested on: KARPAS-620 (Plasma Cell Myeloma)
# How it was run: as §1
# [3] = tested on: SW1783 (Low Grade Glioma)
# How it was run: as §1
# [4] = tested on: SW1088 (Low Grade Glioma)
# How it was run: as §1
# [5] = tested on: DB (B-Cell Non-Hodgkin's Lymphoma)
# How it was run: as §1
# [6] = tested on: KATOIII (Gastric Carcinoma)
# How it was run: as §1
# [7] = tested on: MDA-MB-157 (Breast Carcinoma)
# How it was run: as §1
# SK-N-FI (Neuroblastoma) = tested on: SK-N-FI (Neuroblastoma)
# How it was run: as §1
# [8] = tested on: NCI-H211 (Small Cell Lung Carcinoma)
# How it was run: as §1
# [9] = tested on: DOV13 (Ovarian Carcinoma)
# How it was run: as §1
# [10] = tested on: G-292-Clone-A141B1 (Osteosarcoma)
# How it was run: as §1
# [11] = tested on: MFH-ino (Other Solid Carcinomas)
# How it was run: as §1
# [12] = tested on: IHH-4 (Thyroid Gland Carcinoma)
# How it was run: as §1
# SN12C (Kidney Carcinoma) = tested on: SN12C (Kidney Carcinoma)
# How it was run: as §1
# [13] = tested on: NCI-H1299 (Non-Small Cell Lung Carcinoma)
# How it was run: as §1
# [14] = tested on: OCI-AML2 (Acute Myeloid Leukemia)
# How it was run: as §1
# ES7 (Ewing's Sarcoma) = tested on: ES7 (Ewing's Sarcoma)
# How it was run: as §1
# [15] = tested on: U-266 (Plasma Cell Myeloma)
# How it was run: as §1
# NCI-H2595 (Mesothelioma) = tested on: NCI-H2595 (Mesothelioma)
# How it was run: as §1
# [16] = tested on: MDA-MB-231 (Breast Carcinoma)
# How it was run: as §1
SMILES,combination Emax [1],combination Emax [2],combination Emax [3],combination Emax [4],combination Emax [5],combination Emax [6],combination Emax [7],combination Emax (SK-N-FI (Neuroblastoma)),combination Emax [8],combination Emax [9],combination Emax [10],combination Emax [11],combination Emax [12],combination Emax (SN12C (Kidney Carcinoma)),combination Emax [13],combination Emax [14],combination Emax (ES7 (Ewing's Sarcoma)),combination Emax [15],combination Emax (NCI-H2595 (Mesothelioma)),combination Emax [16]
"CS(=O)(=O)CCNCc1ccc(-c2ccc3ncnc(Nc4ccc(OCc5cccc(F)c5)c(Cl)c4)c3c2)o1 [Lapatinib] + Cn1cnc2c(F)c(Nc3ccc(Br)cc3Cl)c(C(=O)NOCCO)cc21 [Selumetinib] (first compound max 10 µM, 7x7, partner max 10 µM)",0.617,0.72,0.216,0.349,0.63,0.523,0.262,0.582,0.876,0.357,0.192,0.462,0.563,0.28,0.338,1,0.559,0.621,0.25,0.631
"C[C@@H](Oc1cc(-c2cnn(C3CCNCC3)c2)cnc1N)c1c(Cl)ccc(F)c1Cl [Crizotinib] + CC1=C(C(=CC=C1)Cl)NC(=O)C2=CN=C(S2)NC3=CC(=NC(=N3)C)N4CCN(CC4)CCO [Dasatinib] (first compound max 10 µM, 7x7, partner max 2 µM)",0.954,0.835,0.784,0.829,0.711,0.731,0.303,0.422,0.964,1,0.762,0.821,0.875,0.231,0.734,0.826,0.883,0.499,0.628,0.94
"CN(CCO)CC[C@H](CSc1ccccc1)Nc1ccc(S(=O)(=O)NC(=O)c2ccc(N3CCC([C@@H](O)c4ccccc4-c4ccc(Cl)cc4)CC3)cc2)cc1S(=O)(=O)C(F)(F)F [AZD4320] + CS(=O)(=O)CCNCc1ccc(-c2ccc3ncnc(Nc4ccc(OCc5cccc(F)c5)c(Cl)c4)c3c2)o1 [Lapatinib] (first compound max 1 µM, 7x7, partner max 10 µM)",0.401,1,0.883,0.388,1,0.586,0.328,0.578,1,1,0.949,0.262,0.268,0.347,0.244,1,0.984,0.701,0.329,0.951
"O=C(c1cc(Cc2n[nH]c(=O)c3ccccc23)ccc1F)N1CCN(C(=O)C2CC2)CC1 [Olaparib] + Cc1c2c(nn1C)CSCc1cc(n(C)n1)CSc1cc(c3ccccc3c1)OCCCc1c(C(=O)O)n(C)c3c-2c(Cl)ccc13 [AZD5991] (first compound max 10 µM, 7x7, partner max 1 µM)",0.919,1,0.0425,0.136,0.994,0.356,0.655,0.211,0.957,0.216,0.109,0.0277,0.174,0.065,0.0533,0.953,0.942,0.846,0.217,0.161
"Cc1c2c(nn1C)CSCc1cc(n(C)n1)CSc1cc(c3ccccc3c1)OCCCc1c(C(=O)O)n(C)c3c-2c(Cl)ccc13 [AZD5991] + Nc1ccn([C@@H]2O[C@H](CO)[C@@H](O)C2(F)F)c(=O)n1 [Gemcitabine] (first compound max 1 µM, 7x7, partner max 0.3 µM)",0.981,1,0.673,0.197,1,0.49,0.878,0.457,1,0.889,0.152,0.725,1,0.422,0.527,1,0.982,0.944,0.464,0.587
"CN(CCO)CC[C@H](CSc1ccccc1)Nc1ccc(S(=O)(=O)NC(=O)c2ccc(N3CCC([C@@H](O)c4ccccc4-c4ccc(Cl)cc4)CC3)cc2)cc1S(=O)(=O)C(F)(F)F [AZD4320] + Nc1ccn([C@@H]2O[C@H](CO)[C@@H](O)C2(F)F)c(=O)n1 [Gemcitabine] (first compound max 1 µM, 7x7, partner max 0.3 µM)",0.943,1,0.911,0.151,1,0.473,0.674,0.378,1,1,0.511,0.873,1,0.52,0.482,1,0.997,0.857,0.382,0.662
"N#Cc1cnc(Nc2cc(NC[C@H]3CNCCO3)c(C(F)(F)F)cn2)cn1 [SRA737] + CCc1c2c(nc3ccc(O)cc13)-c1cc3c(c(=O)n1C2)COC(=O)[C@]3(O)CC [SN-38] (first compound max 10 µM, 7x7, partner max 0.3 µM)",0.902,0.658,0.857,0.736,0.988,0.543,0.955,0.606,0.987,0.994,0.41,0.704,0.98,0.627,0.559,1,1,0.576,0.389,0.908
"C[C@@H](Nc1cc(F)cc(F)c1)c1cc(C(=O)N(C)C)cc2c(=O)cc(N3CCOCC3)oc12 [AZD8186] + C1CN(CCC1(C(=O)N[C@@H](CCO)C2=CC=C(C=C2)Cl)N)C3=NC=NC4=C3C=CN4 [AZD5363] (first compound max 10 µM, 7x7, partner max 10 µM)",0.755,0.767,0.479,0.742,0.0629,0.0505,0.264,0.335,0.406,0.28,0.515,0.348,0.227,0.149,0.314,0.473,0.509,0.138,0.24,0.281
"Cc1c2c(nn1C)CSCc1cc(n(C)n1)CSc1cc(c3ccccc3c1)OCCCc1c(C(=O)O)n(C)c3c-2c(Cl)ccc13 [AZD5991] + CC(=O)O[C@H]1C(=O)[C@@]2(C)[C@H]([C@H](OC(=O)c3ccccc3)[C@]3(O)C[C@H](OC(=O)[C@H](O)[C@@H](NC(=O)c4ccccc4)c4ccccc4)C(C)=C1C3(C)C)[C@]1(OC(C)=O)CO[C@@H]1C[C@@H]2O [Paclitaxel] (first compound max 1 µM, 7x7, partner max 3 µM)",0.951,1,0.706,0.776,1,0.283,0.977,0.621,1,0.796,0.398,0.416,0.932,0.44,0.734,1,0.958,0.993,0.703,0.498
"Cc1nc(-c2cn3c(n2)-c2ccc(-c4cnn(C(C)(C)C(N)=O)c4)cc2OCC3)n(C(C)C)n1 [Taselisib] + O=C(Nc1ccc2[nH]nc(-c3ccncc3)c2c1)[C@@H]1CCN(CC(=O)N2CCN(c3ccc(-c4ncccn4)cc3)CC2)C1 [SCH772984] (first compound max 10 µM, 7x7, partner max 5 µM)",0.78,0.969,0.643,0.72,0.449,0.583,0.418,0.877,0.55,0.599,0.945,0.659,0.73,0.387,0.629,1,0.726,0.787,0.393,0.834
"C[C@@H]1COCCN1c1cc(C2([S@](C)(=N)=O)CC2)nc(-c2ccnc3[nH]ccc23)n1 [AZD6738] + Nc1ccn([C@@H]2O[C@H](CO)[C@@H](O)C2(F)F)c(=O)n1 [Gemcitabine] (first compound max 10 µM, 7x7, partner max 0.3 µM)",0.926,0.763,0.755,0.731,0.913,0.656,0.925,0.789,0.973,0.965,0.413,0.716,1,0.779,0.841,1,0.991,0.747,0.374,0.858
"N#Cc1cnc(Nc2cc(NC[C@H]3CNCCO3)c(C(F)(F)F)cn2)cn1 [SRA737] + O=c1[nH]cc(F)c(=O)[nH]1 [5-Fluorouracil] (first compound max 10 µM, 7x7, partner max 20 µM)",0.881,0.414,0.318,0.691,0.236,0.565,0.926,0.601,0.8,0.347,0.121,0.314,0.934,0.0841,0.448,1,0.82,0.633,0.132,0.271
